As usually defined, the EC50 is the concentration needed to bring the measured effect to its halfway point. Usually thermodynamic solubility stands for the concentration in solution at equilibrium with solid. What is called CC50 is the concentration giving 50% cytotoxicity. A lower CC50 goes with greater toxicity to the cells.

Results on 14 compounds are retold here after patent US20250120989A1, “BRIDGED TRICYCLIC CARBAMOYLPYRIDONE COMPOUNDS AND USES THEREOF” (priority 2023, published 2025).

In brackets after ≈: the same amount, converted by molar mass.

One data set concerns HIV-1 (IIIB). The experiment in a line: microbe, parasite or virus in culture. It counts as cell-based. Conditions: Human immunodeficiency virus 1, MT4, 120 h; HIV-1 (IIIB) replication in MT-4 cells, 5 days, Cell Titer Glo; read-out: MT4 EC50. On the technique in general: In ATP-based viability assays light output follows the ATP content of the culture.
Another data set in a line: physchem. Conditions: FaSSIF, 23 °C, thermodynamic from solid.
Another data set in a line: in vitro. The conditions noted are these: human, uninfected MT-4 cells.

Take `COC1=NO[C@@]2(CC[C@H](C)N3C[C@H]2n2cc(C(=O)NCc4ccc(F)cc4F)c(=O)c(OCOC(=O)OCCN(CC(=O)O)C(=O)OCOP(=O)(O)O)c2C3=O)C1` [Compound 8, N-(2-((((((3′S,5S,7′R)-10′-((2,4-difluorobenzyl)carbamoyl)-3-methoxy-3′-methyl-1′,11′-dioxo-1′,4′,5′,11′-tetrahydro-3′H,4H,7′H-spiro[isoxazole-5,6′-[2,7]methanopyrido[1,2-a][1,4]diazonin]-12′-yl)oxy)methoxy)carbonyl)oxy)ethyl)-N-(((phosphonooxy)methoxy)carbonyl)glycine]: the EC50 with HIV-1 (IIIB) came to 0.00204 µM. The thermodynamic solubility at 24 h in the data set “physchem” is 3020 µg/mL (≈ 3.63 mM). Also, in “in vitro”, half-maximal cytotoxicity (CC50 at 5 days) was put at 17.8 µM.
On to `CC1=NO[C@@]2(CC[C@H](C)N3C[C@H]2n2cc(C(=O)NCc4ccc(F)cc4F)c(=O)c(OCOC(=O)OCCOP(=O)(O)O)c2C3=O)C1` [Compound 4, (((3′S,5S,7′R)-10′-((2,4-difluorobenzyl)carbamoyl)-3,3′-dimethyl-1′,11′-dioxo-1′,4′,5′,11′-tetrahydro-3′H,4H,7′H-spiro[isoxazole-5,6′-[2,7]methanopyrido[1,2-a][1,4]diazonin]-12′-yl)oxy)methyl (2-(phosphonooxy)ethyl) carbonate], for which the EC50 with HIV-1 (IIIB) came out at 0.00095 µM. This compound had a thermodynamic solubility at 24 h in the data set “physchem” of 4300 µg/mL (≈ 6.28 mM). Moreover, in “in vitro”, the CC50 at 5 days came out at 11.6 µM.
As for `COC1=NO[C@@]2(CC[C@H](C)N3C[C@H]2n2cc(C(=O)NCc4ccc(F)cc4F)c(=O)c(OCOC(=O)OC[C@H](C)COP(=O)(O)O)c2C3=O)C1` [Compound 68, (((3′S,5S,7′R)-10′-((2,4-difluorobenzyl)carbamoyl)-3-methoxy-3′-methyl-1′,11′-dioxo-1′,4′,5′,11′-tetrahydro-3′H,4H,7′H-spiro[isoxazole-5,6′-[2,7]methanopyrido[1,2-a][1,4]diazonin]-12′-yl)oxy)methyl ((S)-2-methyl-3-(phosphonooxy)propyl) carbonate], the concentration for a half-maximal effect (EC50) in the data set on HIV-1 (IIIB) is 0.00211 µM. In “physchem”, this compound registered a thermodynamic solubility at 24 h of 4620 µg/mL (≈ 6.35 mM). Also, in “in vitro”, the CC50 at 5 days stood at 16.1 µM.
For `COC1=NO[C@@]2(CC[C@H](C)N3C[C@H]2n2cc(C(=O)NCc4ccc(F)cc4F)c(=O)c(OCOC(=O)O[C@@H](C)[C@@H](C)OP(=O)(O)O)c2C3=O)C1` [Compound 59, (((3′S,5S,7′R)-10′-((2,4-difluorobenzyl)carbamoyl)-3-methoxy-3′-methyl-1′,11′-dioxo-1′,4′,5′,11′-tetrahydro-3′H,4H,7′H-spiro[isoxazole-5,6′-[2,7]methanopyrido[1,2-a][1,4]diazonin]-12′-yl)oxy)methyl ((2S,3R)-3-(phosphonooxy)butan-2-yl) carbonate], in that order: 0.00204 µM, 5240 µg/mL (≈ 7.19 mM) and 18.8 µM.
As to `CC1=NO[C@@]2(CC[C@H](C)N3C[C@H]2n2cc(C(=O)NCc4ccc(F)cc4F)c(=O)c(OCOC(=O)O[C@@H](C)[C@H](C)OP(=O)(O)O)c2C3=O)C1` [Compound 28, (((3′S,5S,7′R)-10′-((2,4-difluorobenzyl)carbamoyl)-3,3′-dimethyl-1′,11′-dioxo-1′,4′,5′,11′-tetrahydro-3′H,4H,7′H-spiro[isoxazole-5,6′-[2,7]methanopyrido[1,2-a][1,4]diazonin]-12′-yl)oxy)methyl ((2S,3S)-3-(phosphonooxy)butan-2-yl) carbonate], the EC50 in the data set on HIV-1 (IIIB) was 0.00485 µM. Also, in the data set “physchem”, the thermodynamic solubility at 24 h came to 4400 µg/mL (≈ 6.18 mM). The same compound displayed a CC50 at 5 days in “in vitro” of 28.9 µM.
As to `CC1=NO[C@@]2(CC[C@H](C)N3C[C@H]2n2cc(C(=O)NCc4ccc(F)cc4F)c(=O)c(OC(=O)OC[C@H](C)OP(=O)(O)O)c2C3=O)C1` [Compound 39, (3′S,5S,7′R)-10′-((2,4-difluorobenzyl)carbamoyl)-3,3′-dimethyl-1′,11′-dioxo-1′,4′,5′,11′-tetrahydro-3′H,4H,7′H-spiro[isoxazole-5,6′-[2,7]methanopyrido[1,2-a][1,4]diazonin]-12′-yl ((S)-2-(phosphonooxy)propyl) carbonate], the EC50 in the data set on HIV-1 (IIIB) is 0.0016 µM. Moreover, the thermodynamic solubility at 24 h in the data set “physchem” stood at 2660 µg/mL (≈ 3.97 mM). Moreover, in “in vitro”, half-maximal cytotoxicity (CC50 at 5 days) was put at 16.1 µM.
Regarding `CC1=NO[C@@]2(CC[C@H](C)N3C[C@H]2n2cc(C(=O)NCc4ccc(F)cc4F)c(=O)c(OCOC(=O)OCC4(COP(=O)(O)O)CC4)c2C3=O)C1` [Compound 33, (((3′S,5S,7′R)-10′-((2,4-difluorobenzyl)carbamoyl)-3,3′-dimethyl-1′,11′-dioxo-1′,4′,5′,11′-tetrahydro-3′H,4H,7′H-spiro[isoxazole-5,6′-[2,7]methanopyrido[1,2-a][1,4]diazonin]-12′-yl)oxy)methyl ((1-((phosphonooxy)methyl)cyclopropyl)methyl) carbonate], the EC50 in the data set on HIV-1 (IIIB) amounted to 0.00217 µM. In the data set “physchem”, the thermodynamic solubility at 24 h worked out at 5680 µg/mL (≈ 7.84 mM). This compound also showed a CC50 at 5 days in the data set “in vitro” of 12.3 µM.
Turning to `CC1=NO[C@@]2(CC[C@H](C)N3C[C@H]2n2cc(C(=O)NCc4ccc(F)cc4F)c(=O)c(OCOC(=O)OC[C@@H](C)OP(=O)(O)O)c2C3=O)C1` [Compound 22, (((3′S,5S,7′R)-10′-((2,4-difluorobenzyl)carbamoyl)-3,3′-dimethyl-1′,11′-dioxo-1′,4′,5′,11′-tetrahydro-3′H,4H,7′H-spiro[isoxazole-5,6′-[2,7]methanopyrido[1,2-a][1,4]diazonin]-12′-yl)oxy)methyl ((R)-2-(phosphonooxy)propyl) carbonate], the EC50 with HIV-1 (IIIB) turned out to be 0.00193 µM. Also, the solubility (thermodynamic) at 24 h in “physchem” was found to be 4180 µg/mL (≈ 5.99 mM). Besides, in “in vitro”, the CC50 at 5 days stood at 9.78 µM.
On to `COC1=NO[C@@]2(CC[C@H](C)N3C[C@H]2n2cc(C(=O)NCc4ccc(F)cc4F)c(=O)c(OCOC(=O)OC(C)(C)COP(=O)(O)O)c2C3=O)C1` [Compound 63, (((3′S,5S,7′R)-10′-((2,4-difluorobenzyl)carbamoyl)-3-methoxy-3′-methyl-1′,11′-dioxo-1′,4′,5′,11′-tetrahydro-3′H,4H,7′H-spiro[isoxazole-5,6′-[2,7]methanopyrido[1,2-a][1,4]diazonin]-12′-yl)oxy)methyl (2-methyl-1-(phosphonooxy)propan-2-yl) carbonate], for which the EC50 with HIV-1 (IIIB) was found to be 0.00512 µM. This compound came in with a solubility (thermodynamic) at 24 h in “physchem” of 4620 µg/mL (≈ 6.35 mM). In “in vitro”, this compound showed a CC50 at 5 days of 35.4 µM.
As for `CC1=NO[C@@]2(CC[C@H](C)N3C[C@H]2n2cc(C(=O)NCc4ccc(F)cc4F)c(=O)c(OCOC(=O)OCC(C)(C)N(C)C(=O)OCOP(=O)(O)O)c2C3=O)C1` [Compound 36, (phosphonooxy)methyl (1-((((((3′S,5S,7′R)-10′-((2,4-difluorobenzyl)carbamoyl)-3,3′-dimethyl-1′,11′-dioxo-1′,4′,5′,11′-tetrahydro-3′H,4H,7′H-spiro[isoxazole-5,6′-[2,7]methanopyrido[1,2-a][1,4]diazonin]-12′-yl)oxy)methoxy)carbonyl)oxy)-2-methylpropan-2-yl)(methyl)carbamate], the EC50 in the data set on HIV-1 (IIIB) was 0.00122 µM. Also, in the data set “physchem”, the thermodynamic solubility at 24 h turned out to be 5060 µg/mL (≈ 6.32 mM). The compound further showed a CC50 at 5 days in “in vitro” of 9.33 µM.
In the case of `CC[C@H](COC(=O)OCOc1c2n(cc(C(=O)NCc3ccc(F)cc3F)c1=O)[C@@H]1CN(C2=O)[C@@H](C)CC[C@]12CC(OC)=NO2)OP(=O)(O)O` [Compound 65, (((3′S,5S,7′R)-10′-((2,4-difluorobenzyl)carbamoyl)-3-methoxy-3′-methyl-1′,11′-dioxo-1′,4′,5′,11′-tetrahydro-3′H,4H,7′H-spiro[isoxazole-5,6′-[2,7]methanopyrido[1,2-a][1,4]diazonin]-12′-yl)oxy)methyl ((R)-2-(phosphonooxy)butyl) carbonate], the EC50 in the data set with HIV-1 (IIIB) was 0.00102 µM. For the same compound, in the data set “physchem”, the solubility (thermodynamic) at 24 h is 3880 µg/mL (≈ 5.33 mM). This compound came in with a CC50 at 5 days in the data set “in vitro” of 14.1 µM.
Regarding `CC1=NO[C@@]2(CC[C@H](C)N3C[C@H]2n2cc(C(=O)NCc4ccc(F)cc4F)c(=O)c(OCOC(=O)CC(C)(C)CN(CC(=O)O)C(=O)OCOP(=O)(O)O)c2C3=O)C1` [Compound 42, N-(4-((((3′S,5S,7′R)-10′-((2,4-difluorobenzyl)carbamoyl)-3,3′-dimethyl-1′,11′-dioxo-1′,4′,5′,11′-tetrahydro-3′H,4H,7′H-spiro[isoxazole-5,6′-[2,7]methanopyrido[1,2-a][1,4]diazonin]-12′-yl)oxy)methoxy)-2,2-dimethyl-4-oxobutyl)-N-(((phosphonooxy)methoxy)carbonyl)glycine], the EC50 in the data set on HIV-1 (IIIB) was 0.00106 µM. Moreover, the thermodynamic solubility at 24 h in “physchem” was 5080 µg/mL (≈ 6.04 mM). In “in vitro”, it took 10.3 µM to reach half-maximal cytotoxicity (CC50 at 5 days).
Regarding `COC1=NO[C@@]2(CC[C@H](C)N3C[C@H]2n2cc(C(=O)NCc4ccc(F)cc4F)c(=O)c(OCOC(=O)O[C@@H](C)COP(=O)(O)O)c2C3=O)C1` [Compound 24, (((3′S,5S,7′R)-10′-((2,4-difluorobenzyl)carbamoyl)-3-methoxy-3′-methyl-1′,11′-dioxo-1′,4′,5′,11′-tetrahydro-3′H,4H,7′H-spiro[isoxazole-5,6′-[2,7]methanopyrido[1,2-a][1,4]diazonin]-12′-yl)oxy)methyl ((S)-1-(phosphonooxy)propan-2-yl) carbonate], the EC50 in the data set on HIV-1 (IIIB) was determined as 0.00229 µM. The solubility (thermodynamic) at 24 h in the data set “physchem” turned out to be 5000 µg/mL (≈ 7 mM). The compound further returned a CC50 at 5 days in “in vitro” of 17.1 µM.
The matching figures for `CC1=NO[C@@]2(CC[C@H](C)N3C[C@H]2n2cc(C(=O)NCc4ccc(F)cc4F)c(=O)c(OCOC(=O)CC(C)(C)COP(=O)(O)O)c2C3=O)C1` [Compound 41, (((3′S,5S,7′R)-10′-((2,4-difluorobenzyl)carbamoyl)-3,3′-dimethyl-1′,11′-dioxo-1′,4′,5′,11′-tetrahydro-3′H,4H,7′H-spiro[isoxazole-5,6′-[2,7]methanopyrido[1,2-a][1,4]diazonin]-12′-yl)oxy)methyl 3,3-dimethyl-4-(phosphonooxy)butanoate]: 0.00309 µM, 5600 µg/mL (≈ 7.87 mM) and 44.3 µM.
